Experimental data reported in ChEMBL document CHEMBL1157539, “Thousands of chemical starting points for antimalarial lead identification” (Nature, 2010).

These molecules were tested on Plasmodium falciparum (assay: GSK_TCMDC: Inhibition of Plasmodium falciparum 3D7 in whole erythrocytes, using parasite LDH activity as an index of growth.). Conditions: Plasmodium falciparum, 3D7.
Assay type: functional, organism-based

For `Cc1nc(O)c2c(ccc3ccc(CNc4ccc(C(=O)N[C@@H](CCC(=O)O)C(=O)O)cc4)cc32)n1`, which XC50 is on record?
Its XC50 is 177 nM.

With `CS(=O)(=O)CCNCc1cc(-c2cc3ncnc(Nc4ccc(OCc5cccc(F)c5)c(Cl)c4)c3s2)cs1` as the molecule, how does the XC50 read?
The XC50 was 326 nM.

How did the XC50 turn out when `O=[N+]([O-])c1ccc(C=NNc2nc(Nc3ccccc3)nc(Nc3ccccc3)n2)o1` was run?
The XC50 was 837 nM.

`O=S(=O)(c1cc2ccccc2s1)N(CCC(O)(C(F)(F)F)C(F)(F)F)Cc1cccc(O)c1` was tested. Which XC50 did it give?
The XC50 was 751 nM.

For `CCCN(CCC)C(=O)c1cc(C(=O)N[C@@H](Cc2ccccc2)[C@H](O)CNCc2cccc(C(F)(F)F)c2)cc(N2CCCCS2(=O)=O)c1`, which XC50 is on record?
The XC50 was 876 nM.

`CC(C)C(C(=O)Nc1ccc(S(=O)(=O)N(C)C)cc1)c1ccc(Cl)cc1` (stereo not drawn) was tested. Which XC50 did it give?
The XC50 was 937 nM.

`O=C(Nc1cc(C(F)(F)F)cc(C(F)(F)F)c1)Nc1ccc(Cl)c(Cl)c1` was tested. Which XC50 did it give?
The XC50 was 240 nM.

With `COc1ccc(OC)c(C(O)CNC(C)C)c1` (stereo not drawn) as the molecule, how does the XC50 read?
The XC50 was 56 nM.

How did the XC50 turn out when `Cc1c(C2CCN(CCCCNC(=O)c3ccc(-c4ccc(C#N)cc4)cc3)CC2)c2ccccc2n1CCO` was run?
Its XC50 is 995 nM.

How did the XC50 turn out when `CC(=O)c1c(Nc2c(C)cc(C)cc2C)oc(C)cc1=O` was run?
Its XC50 is 481 nM.

`CC(C)(C)c1ccc(CNC(=O)c2ccc(-c3nc4ccc(Cl)cc4[nH]3)cc2)cc1` was tested. Which XC50 did it give?
The XC50 was 819 nM.

How did the XC50 turn out when `Cc1c(S(=O)(=O)Nc2cccc(CCN3CCCCC3CCN3CCCC3)c2)sc2ccc(Cl)cc12` (stereo not drawn) was run?
The XC50 was 925 nM.

For `CN(C)Cc1ccc2cc(NC(=O)c3ccc(-c4ccc(Cl)cc4)cc3)ccc2n1`, which XC50 is on record?
The XC50 was 849 nM.

For `CN(C)Cc1ccc(-c2ccc3c(Nc4ccc(Oc5ccccc5)cc4)ccnc3c2)o1`, which XC50 is on record?
The XC50 was 788 nM.

Which XC50 does the source give for `Nc1nc2c(ncn2COC(COCc2ccccc2)COCc2ccccc2)c(=O)[nH]1.Nc1nc2ncn(COC(COCc3ccccc3)COCc3ccccc3)c2c(=O)[nH]1` here?
The XC50 was 714 nM.

With `COc1ccc(CNc2ccc3nc(N)nc(N)c3c2)cc1` as the molecule, how does the XC50 read?
Its XC50 is 172 nM.

Which XC50 does the source give for `Cc1nc2nc(N)nc(N)c2c(C)c1Cc1ccccc1I` here?
Its XC50 is 351 nM.

For `COc1ccc2nccc([C@@H](O)CN3CCC(NC(=O)C(c4cccs4)N4CCN(c5ccc(F)cc5)CC4)CC3)c2c1` (stereo partly drawn), which XC50 is on record?
The XC50 was 817 nM.

How did the XC50 turn out when `COc1ccc2nccc(N(C)CC3(O)CCN(CC(O)c4ccc5c(c4)NC(=O)CS5)CC3)c2n1` (stereo not drawn) was run?
The XC50 was 590 nM.

Which XC50 does the source give for `COc1ccc(-c2ccc(NC(=O)c3cccc(C#N)c3)cc2)cc1CN1CCCN(C)CC1` here?
The XC50 was 293 nM.

How did the XC50 turn out when `Cc1cccc2nc(-c3cccc(-c4cccc(CNCC5CCCO5)c4)c3)[nH]c12` (stereo not drawn) was run?
The XC50 was 602 nM.

For `Cc1ccc(-c2nc3cc(NC(=O)c4ccc([N+](=O)[O-])o4)ccc3o2)cc1Cl`, which XC50 is on record?
The XC50 was 160 nM.

`CN(C)CCN(C)Cc1cccc(-c2ccc3c(Nc4ccc(F)cc4Cl)ccnc3c2)c1` was tested. Which XC50 did it give?
Its XC50 is 110 nM.

For `O=C(NC1CCCCC1)c1ccc(O)c(-c2cccc(C(F)(F)F)c2)c1`, which XC50 is on record?
Its XC50 is 712 nM.

Which XC50 does the source give for `COc1ccc2nccc([C@@H](O)CN3CCC(NC(=O)/C=C/c4cc(F)cc(Br)c4)CC3)c2c1` here?
The XC50 was 172 nM.

For `Cc1[nH]c(C)c(-c2ccc(CCc3ccc(F)cc3F)cc2)c(=O)c1Cl`, which XC50 is on record?
The XC50 was 15.9 nM.

With `O=C(Nc1ccc(Cn2ncc(N3CCNCC3)c(Cl)c2=O)cc1)Nc1ccc(-c2ccccc2)cc1` as the molecule, how does the XC50 read?
Its XC50 is 591 nM.

For `C/C=C/C=C/C1=NCCc2cc(OCCC)ccc21`, which XC50 is on record?
The XC50 was 914 nM.

`COc1ccc2ncc(F)c(CCN3CC(O)C(CNCc4ccc5c(n4)NC(=O)CS5)C3)c2c1` (stereo not drawn) was tested. Which XC50 did it give?
Its XC50 is 784 nM.

`O=C(NCc1ccccc1)C1Cc2c([nH]c3ccc(Br)cc23)C2(CCN(Cc3ccccc3)CC2)N1` (stereo not drawn) was tested. Which XC50 did it give?
The XC50 was 873 nM.

With `Cc1cc(OCCCn2ccnc2)ccc1-c1csc(/N=C(\N)NCc2ccccc2)n1` as the molecule, how does the XC50 read?
The XC50 was 878 nM.

For `O=C(Nc1cccc(-c2cccc(-c3nc4cc(F)ccc4[nH]3)c2)c1)c1ccncc1`, which XC50 is on record?
Its XC50 is 514 nM.

With `COc1ccc(NC(=O)c2cc(NC(=O)C3(N)CC3)c(=O)n(Cc3ccc(C(N)=O)cc3)c2)cc1` as the molecule, how does the XC50 read?
Its XC50 is 792 nM.

How did the XC50 turn out when `Oc1ccccc1CNCC12CC3CC(CC(C3)C1)C2` was run?
The XC50 was 279 nM.

With `COc1ccc2nccc([C@@H](O)CN3CCC(NC(=O)c4ccc(Cl)c([N+](=O)[O-])c4)CC3)c2c1` as the molecule, how does the XC50 read?
The XC50 was 954 nM.

For `O=C1C(c2ccccc2)=C(Nc2ccc(OC(F)(F)F)cc2)c2ccccc21`, which XC50 is on record?
Its XC50 is 107 nM.

For `COc1ccc(Cn2ccc3c4c(N)nc(N)nc4ccc32)cc1`, which XC50 is on record?
The XC50 was 3.2 nM.

How did the XC50 turn out when `COc1ccc(-c2ccc(NC(=O)c3ccc(C#N)cc3)cc2)cc1CN(C)CCO` was run?
Its XC50 is 629 nM.
